Molecular target: T1, A2BARs (rat cortical neurons) (Rattus norvegicus, UniProt P29276)
T1 construct: gene Adora2b; native receptor in membranes of primary cortical neurons from day-18 rat embryos
T1 sequence (P29276 1-332): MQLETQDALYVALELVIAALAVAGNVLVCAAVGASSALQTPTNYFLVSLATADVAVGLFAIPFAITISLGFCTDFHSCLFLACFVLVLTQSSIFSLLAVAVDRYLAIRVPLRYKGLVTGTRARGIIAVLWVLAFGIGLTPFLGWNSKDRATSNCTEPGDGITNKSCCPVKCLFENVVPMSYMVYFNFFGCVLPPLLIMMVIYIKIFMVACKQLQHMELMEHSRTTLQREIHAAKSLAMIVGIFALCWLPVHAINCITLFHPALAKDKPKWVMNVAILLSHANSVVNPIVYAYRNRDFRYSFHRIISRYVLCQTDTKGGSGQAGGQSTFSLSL
Assay: radioligand saturation binding, membranes
Settings: rat cortical neuron membranes, no PEMF; labelled compound
Excerpt: radioligand saturation binding, membranes on A2BARs (rat cortical neurons)

Kd: 1.52 ± 0.11 nM
Structure (SMILES): CCCn1c(=O)c2[nH]c(-c3cc(OCC(=O)Nc4ccc5c(c4)OCO5)nn3C)nc2n(CCC)c1=O [[3H]-MRE 2029F20, [^3H]-N-benzo [1], [3]dioxol-5-yl-2-[5-(2,6-dioxo-1,3-dipropyl-2,3,6,7-tetrahydro-1H-purin-8-yl)-1-methy-1H-pyrazol-3-yl-oxy]-acetamide]
